Reference: patent US20230242679A1, “BISPECIFIC ANTIBODY THERAPIES” (priority 2022, published 2023)
Entries after “also recorded” stand apart in the source; their conditions may differ. Read-outs that look alike come from different tables or passages of the source.

Legend:
[1] = system: CRS in SCID or humanized mice with Raji-luc tumor cells; assay: Mouse model of Raji-luc tumor with CAR-T induced CRS (Example 2); settings: IP, BID for 7 days
normal human PBMC = assay: Cytokine release assay in normal human PBMC stimulated with LPS or Poly (I:C); type: cell-based; settings: for Number of cytokines reduced of those analyzed: LPS or Poly(I:C), pooled and individual donor results
influenza (H1N1) = type: in vivo, mice; settings: for IL-2 in vivo / IL-6 in vivo / IL-10 in vivo: CytoAgents in vivo influenza (H1N1) studies
influenza (H5N1) = settings: Gemmus Pharma in vivo influenza (H5N1) studies; listed as CT01681, monosodium salt; cited from earlier work
CD19+Raji tumor cells = assay: Raji target cell killing by CD19 CAR T-cells (flow cytometry, 7-AAD); type: cell-based, human; settings: 0.36-225 nM; 24 hours; Effector:Target 10:1, 5:1, 1:1; listed as CT01681, monosodium salt
Excerpt: The impact of CT01681 on the efficacy of CD19-targeting CAR T-cells in vitro was studied as a surrogate measure of the impact of CTO1681 on T cell function downstream of administering bispecific antibody therapy to a subject. […] CD3 T cells were sorted from one healthy donor PBMCs, stimulated for a short period of time and transduced with CD19 CAR-T lentivirus (LV) containing CD28 and CD3ζ domains. CD19 CAR T-cells were expanded for 6 days and used in the assay. CD19-targeting CD3 T-cells were treated with 5 increasing concentrations of CT01681 (0.36 nM, 1.8 nM, 9 nM, 45 nM, and 225 nM) or vehicle for 30 minutes prior to, and during co-culture with CD19+Raji lymphoma target cells. Media alone, vehicle, and positive control (dexamethasone) wells were included. […] Following incubation, supernatant was collected and levels of pro-inflammatory cytokines IL-6 and TNF-α were measured by multiplex Luminex assay and […] was measured via time-resolved fluorescence resonance energy transfer (TR-FRET) assay. These cytokines were selected for quantification as they are early cytokines released following CAR T-cell infusion and bispecific antibody therapy administration in vivo that causes hyperactivation of the immune system resulting in acute systemic inflammation, CRS, multiorgan failure, and possible death. […]

[2] = system: CD19-targeting CAR T-cells co-cultured with CD19+Raji lymphoma target cells; assay: Cytokine levels in co-culture of CD19 CAR T-cells with Raji cells; type: cell-based, human; settings: for Levels of IL-6 / Levels of TNF-α / Levels of IFN-γ: CAR T-cells:Raji cells 10:1; for Levels of IL-6: FIG. 1A; for Levels of TNF-α: FIG. 1B; for Levels of IFN-γ: FIG. 1C
Excerpt: The impact of CT01681 on the efficacy of CD19-targeting CAR T-cells in vitro was studied as a surrogate measure of the impact of CTO1681 on T cell function downstream of administering bispecific antibody therapy to a subject. […] CD3 T cells were sorted from one healthy donor PBMCs, stimulated for a short period of time and transduced with CD19 CAR-T lentivirus (LV) containing CD28 and CD3ζ domains. CD19 CAR T-cells were expanded for 6 days and used in the assay. CD19-targeting CD3 T-cells were treated with 5 increasing concentrations of CT01681 (0.36 nM, 1.8 nM, 9 nM, 45 nM, and 225 nM) or vehicle for 30 minutes prior to, and during co-culture with CD19+Raji lymphoma target cells. Media alone, vehicle, and positive control (dexamethasone) wells were included. Following initial treatment, CAR T-cells (Effectors) were co-cultured with fluorescently labeled CD19+Raji tumor cells (Target cells) at 3 different Effector: Target cell ratios (10:1, 5:1 and 1:1) and treated with 5 different concentrations of CT01681 or vehicle for 24 hours. Target cells (Raji cells) were fluorescently labelled with CPD (eBioscience™ Cell Proliferation Dye eFluor™) prior to co-culture to distinguish the Raji cells from the effector cells and allow for analysis of target viability by flow cytometry. Following incubation, supernatant was collected and levels of pro-inflammatory cytokines IL-6 and TNF-α were measured by multiplex Luminex assay and […] was measured via time-resolved fluorescence resonance energy transfer (TR-FRET) assay. These cytokines were selected for quantification as they are early cytokines released following CAR T-cell infusion and bispecific antibody therapy administration in vivo that causes hyperactivation of the immune system resulting in acute systemic inflammation, CRS, multiorgan failure, and possible death. In addition, flow cytometry was used to measure the level of Raji tumor/target cell death following CAR T treatment across CTO1681 conditions to measure impact of CTO1681 with CAR T-cell efficacy. Co-cultures were stained with viability dye 7-AAD for measuring viability.

[3] = listed as CT01681, monosodium salt
[4] = LPS, 24 h supernatant, CTO1681 750 μM
[5] = Poly(I:C), 24 h supernatant, CTO1681 750 μM
[6] = Effector:Target 10:1, 0.36-225 nM, 24 hours, Luminex

For `CC#CC[C@H](C)[C@H](O)/C=C/[C@@H]1[C@H]2c3cccc(CCCC(=O)[O-])c3O[C@H]2C[C@H]1O.[Na+]` [CTO1681, (+)-[1R, 2R, 3aS, 8bS]-2,3,3a,8b-tetrahydro-2-hydroxy-1-[(E)-(3S,4S)-3-hydroxy-4-methyl-1-octen-6-ynyl)-1Hcyclopenta[b]benzofuran-5-butanoic acid, monosodium salt], the “Survival benefits versus dexamethasone” value [1] was “greater survival benefits”, the “Nominal reduction in ex vivo production of IFNα” value (normal human PBMC; LPS or Poly(I:C) stimulated PBMC, statistically significant) was “less than 2 fold” and the “Number of cytokines reduced of those analyzed” value (normal human PBMC; [3]) was 21 of the 29. The “Number of cytokines reduced of those analyzed” value (normal human PBMC; monosodium salt) was 21, the “Cytokine response CCL2 (MCP-1) (significant reduction)” value (normal human PBMC; [4]) was “YES” and the “Cytokine response CCL3 (MIP1 α) (significant reduction)” value (normal human PBMC; [4]) was “YES”. The “Cytokine response CCL5 (RANTES) (significant reduction)” value (normal human PBMC; [4]) was “YES”, the “Cytokine response CXCL9 (MIG) (significant reduction)” value (normal human PBMC; [4]) was “YES” and the “Cytokine response CXCL10 (IP-10) (significant reduction)” value (normal human PBMC; [4]) was “YES”. For the same compound, the “Cytokine response FGF (significant reduction)” value (normal human PBMC; [4]) was “YES”, the “Cytokine response GM-CSF (significant reduction)” value (normal human PBMC; [4]) was “YES” and the “Cytokine response IFN-α2 (significant reduction)” value (normal human PBMC; [4]) was “YES”. The “Cytokine response IFN-γ (significant reduction)” value (normal human PBMC; [4]) was “YES”, the “Cytokine response IL-1α (significant reduction)” value (normal human PBMC; [4]) was “YES” and the “Cytokine response IL-1β (significant reduction)” value (normal human PBMC; [4]) was “YES”. The “Cytokine response IL-4 (significant reduction)” value (normal human PBMC; [4]) was “YES”, the “Cytokine response IL-5 (significant reduction)” value (normal human PBMC; [4]) was “YES” and the “Cytokine response IL-9 (significant reduction)” value (normal human PBMC; [4]) was “YES”. For the same compound, the “Cytokine response IL-12 (significant reduction)” value (normal human PBMC; [4]) was “YES”, the “Cytokine response IL-13 (significant reduction)” value (normal human PBMC; [4]) was “YES” and the “Cytokine response IL-15 (significant reduction)” value (normal human PBMC; [4]) was “YES”. For the same compound, the “Cytokine response IL-17 (significant reduction)” value (normal human PBMC; [4]) was “YES”, the “Cytokine response IL-18 (significant reduction)” value (normal human PBMC; [4]) was “YES” and the “Cytokine response PDGF (significant reduction)” value (normal human PBMC; [4]) was “YES”. For the same compound, the “Cytokine response TNF-α (significant reduction)” value (normal human PBMC; [4]) was “YES”, the “Cytokine response CCL2 (MCP-1) (significant reduction)” value (normal human PBMC; [5]) was “YES” and the “Cytokine response CCL5 (RANTES) (significant reduction)” value (normal human PBMC; [5]) was “YES”. For the same compound, the “Cytokine response CXCL9 (MIG) (significant reduction)” value (normal human PBMC; [5]) was “YES”, the “Cytokine response CXCL10 (IP-10) (significant reduction)” value (normal human PBMC; [5]) was “YES” and the “Cytokine response IFN-α2 (significant reduction)” value (normal human PBMC; [5]) was “YES”. For the same compound, the “Cytokine response IFN-γ (significant reduction)” value (normal human PBMC; [5]) was “YES”, the “Cytokine response IL-1α (significant reduction)” value (normal human PBMC; [5]) was “YES” and the “Cytokine response IL-1β (significant reduction)” value (normal human PBMC; [5]) was “YES”. For the same compound, the “Cytokine response IL-4 (significant reduction)” value (normal human PBMC; [5]) was “YES”, the “Cytokine response IL-5 (significant reduction)” value (normal human PBMC; [5]) was “YES” and the “Cytokine response IL-12 (significant reduction)” value (normal human PBMC; [5]) was “YES”. For the same compound, the “Cytokine response IL-13 (significant reduction)” value (normal human PBMC; [5]) was “YES”, the “Cytokine response IL-15 (significant reduction)” value (normal human PBMC; [5]) was “YES” and the “Cytokine response IL-18 (significant reduction)” value (normal human PBMC; [5]) was “YES”. The “Cytokine response PDGF (significant reduction)” value (normal human PBMC; [5]) was “YES”, the “Cytokine response TNF-α (significant reduction)” value (normal human PBMC; [5]) was “YES” and the IL-2 in vivo (influenza (H1N1); [3]) was “significantly suppressed”. For the same compound, the IL-6 in vivo (influenza (H1N1); [3]) was “significantly suppressed”, the IL-10 in vivo (influenza (H1N1); [3]) was “significantly suppressed” and the IL-2 in vivo (influenza (H1N1); monosodium salt) was “reduced”. The IL-6 in vivo (influenza (H1N1); monosodium salt) was “reduced”, the IL-10 in vivo (influenza (H1N1); monosodium salt) was “reduced” and the IL-8 in vivo (influenza (H1N1); mouse, in vivo) was “significantly suppressed”. The “IFN-α concentrations in vivo” value (influenza (H1N1); mouse, in vivo, listed as CT01681, monosodium salt) was “no significant repression”, the “IFN-α concentrations in vivo” value (influenza (H1N1); mouse, in vivo, monosodium salt) was “not suppressed” and the IL-2 in vivo (influenza (H5N1)) was “reduced; also recorded: significantly suppressed”. The IL-6 in vivo (influenza (H5N1)) was “reduced; also recorded: significantly suppressed”, the IL-8 in vivo (influenza (H5N1)) was “reduced; also recorded: significantly suppressed” and the IL-10 in vivo (influenza (H5N1)) was “reduced; also recorded: significantly suppressed”. For the same compound, the “Effect on tumor/target cell killing efficacy of CD19 CAR T-cells” value (CD19+Raji tumor cells) was “does not interfere; also recorded: absence of an effect; also recorded: did not impact or interfere”, the “Levels of IL-6” value [2, 3] was “dose-dependently lowers” and the “Levels of IL-6” value ([2]; monosodium salt) was “dose-dependently reduced”. The “Levels of TNF-α” value [2, 3] was “dose-dependently lowers”, the “Levels of TNF-α” value ([2]; monosodium salt) was “dose-dependently reduced” and the “Levels of IFN-γ” value [2, 3] was “dose-dependently lowers”. The “Levels of IFN-γ” value ([2]; monosodium salt) was “dose-dependently reduced”, the “Maximum reduction of IL-6” value [2, 6] was ~23% and the “Maximum reduction of TNF-α” value [2, 6] was “approximately 50%”. For the same compound, the “Maximum reduction of IFN-γ” value ([2]; Effector:Target 10:1, 0.36-225 nM, 24 hours, TR-FRET) was ~26%, the “IL-6 with increasing concentrations” value ([2]; three CAR-T:Raji ratios (10:1, 5:1, 1:1), FIG. 1D) was “reduction” and the “TNF-α with increasing concentrations” value ([2]; three CAR-T:Raji ratios (10:1, 5:1, 1:1), FIG. 1E) was “reduction”. For the same compound, the “IFN-γ with increasing concentrations” value ([2]; three CAR-T:Raji ratios (10:1, 5:1, 1:1), FIG. 1F) was “reduction”.
